Here are results for 1 compound from US7455861B2, “Angelicae sinensis extracts useful for treatment of cancers” (priority 2004, dated 2008).

Test [1] concerns HT-29. The test can be described thus: Cytotoxicity (IC50) on HT-29. The settings on record: Homo sapiens. The class given is cell-based. The source says: Human umbilical vascular endothelial cells (HUVECs) were purchased from Cascade Biologics, Inc. (USA). HUVECs were maintained in Medium 200 (Cascade Biologics, Inc. USA) supplemented with 10% fetal bovine serum (FBS; Gibco BRL) and low serum growth supplement (LSGS; Cascade Biologics, Inc. USA). Human dermal fibroblasts (HDFs) were purchased from Cascade Biologics, Inc. (USA). HDFs were maintained in Medium 106 (Cascade Biologics, Inc. USA) supplemented with 10% FBS and low serum growth supplement (LSGS; Cascade Biologics, Inc. USA). The human colon adenocarcinoma cell lines HT-29 were purchased from the ATCC (Manassas, Va. USA). HT-29 were maintained in Dubecco's Modified Eagle Medium (DMEM; Gibco) supplemented with 10% FBS and 100 ng/ml penicillin and […] streptomycin (Life Technologies, Inc., Grand Island, N.Y., USA). […] The absorbance was measured at 450 nm, using a microplate reader with a reference wavelength at 600 nm or over. […]
(§1) The effects on cell viability after the treatments with different concentrations of the Angelicae sinensis extracts or the active components purified therefrom were evaluated by modified MTT assay in triplicate. […] Absorbance at 550 nm of the solutions was measured with MRX Microtiter Plate Luminometer (DYNEX, USA). The absorbance of untreated cells was considered as 100%. […]

Test [2] deals with MCF-7. Kind of test: Cytotoxicity (IC50) on MCF-7. The class given is cell-based. To be noted: Homo sapiens, MCF7. On the procedure: Human tumor cell lines (MCF-7, CL1-5, HT-29, Caco-2), human umbilical vascular endothelial cells (HUVEC), and human dermal fibroblasts (HDF) were tested for sensitivity on Angelicae sinensis extracts, ligustilide, n-butylidenephthalide and its derivatives in vitro. The DBTRG-05MG, BCM, HL-60 and J5 cells were grown in RPMI-1640 medium containing 10% fetal calf serum and 100 ng/ml penicillin and […] streptomycin at 37° C. in a humidified atmosphere with 5% CO2. The G5T/VGH, RG2, Ni 8, SVEC and Balb/3T3 cells were cultured in DMEM with 10% fetal calf serum and 100 ng/ml penicillin and […] streptomycin at 37° C. in 5% CO2. Mycoplasma infection of the culture cells was excluded by PCR screening methods before each experiment.
as §1, with “triplicate. Briefly, the cells (5×10^3) were incubated into 96-well plates containing 100 μl of a growth medium. The cells were permitted to adhere for 24 hours, then treated with 100 μl of the herbal extracts or the active components dissolved in the medium. The control contained DMSO of <0.02% (v/v).” for “triplicate.”

The test system of test [3] is GBM cells (DBTRG-05MG). Kind of test: Apoptosis of GBM cells by TUNEL. Type of test: cell-based, human. On the procedure: Apoptotic cell death was analyzed using In Situ Cell Death Detection Kit, POD (Roche, Germany). Changes in DNA chromatin morphologic features were used for quantification. The procedures were performed in accordance with the manufacturer's instructions. […] In AS-C and BP-treated groups, the suspended cells were collected. In the control group, adherent and floating cells were collected. Then, the cells were fixed with 3.7% formaldehyde at room temperature for 15 min. on saline coated slides, washed once in 1×PBS, and incubated in cold permeabilization solution (0.1% Triton X-100+0.1% sodium citrate) after reducing activity of endogenous peroxidase with 3% H2O2. The cells were washed with 1×PBS again, and incubated with terminal deoxynucleiotidyl transferase (TdT)-mediated dUTP nicks labeling (TUNEL) reaction mixture for 60 minutes at 37° C. Then, the cells were washed with 1×PBS, counterstained with propidium iodide (PI) for cell counting. For quantification of apoptosis, the results were viewed under fluorescence microscopy (Nikon, Kawasaki, Japan).
The apoptotic cells with AS-C treatment were detected by fluorescence microscopy (400×), with In Situ TUNEL staining and propidium iodide cell counterstaining, and observed under light field. Likewise, BP induced apoptosis in GBM cells was assessed by TUNEL method and using propidium iodide as a counter stain. […]

Consider `CCCC=C1OC(=O)c2ccccc21` [BP, n-Butylidenephthalide], for which the IC50 in test [1] (Table 2) is 15 to 97 µg/mL; in test [1] (Table 2, value in parentheses), 79.8 to 516 µM; in test [2] (Table 1, value in parentheses), above 106 µM; in test [2] (cancer cells, Table 1), above 20 µg/mL. The “apoptosis rates of GBM cells compared to untreated cells (TUNEL)” value in test [3] (BP 5 to 800 μM, 48 hours) is reported as “much higher”. Moreover, the “detached GBM cells having undergone apoptosis (TUNEL)” value in test [3] (BP 5˜800 μg/ml as printed, 72 hours) was “almost all”.

What is called IC50 is the midpoint of a concentration-inhibition curve.
